In patent US4499019A, “N-(1-allyl-2-pyrrolidylmethyl)-2,3-dimethoxy-5-sulfamoylbenzamide and derivatives thereof and method for treating hot flushes associated with natural or surgical menopause” (Societe D'Etudes Scientifiques et Industrielles de l'Ile de …, priority 1976, dated 1985):
Like-named read-outs stand apart in the source and are kept apart here.

Assays:
[1] = Acute toxicity in the Swiss mouse (parenteral and oral administration); settings: in vivo
Description: (§1) The acute toxicity of the compound was studied in the Swiss mouse with both parenteral and oral administration and in the Wistar rat with oral administration.

[2] = test system: psycho neuro-vegetative symptoms of the menopause; assay: Double-blind study against placebo on the psycho neuro-vegetative symptoms of the menopause; format: in vivo, human; settings: forty observations, double blinding against placebo
Description: The action of the compound on the psycho neuro-vegetative symptoms of the menopause has been studied with double blinding against placebo.

[3] = test system: female hamster; assay: Effects on ovary and mammary glands in the female hamster; format: in vivo
Description: (§2) Experiments have been carried out on both the female rat and the female hamster. The changes produced by the compound at the level of the ovary and of vaginal cytology make it possible to predict a point of impact located at the level of the hypothalamo hypophyso-ovarian axis.

[4] = test system: male rats; settings: rat, in vivo, sc
Description: The compound was administered subcutaneously to male rats. The criterion for the cataleptic state was the immobility of the animal for 30 seconds with its front limbs apart and arranged carefully on cubes of wood 4 centimeters high, thus placing the animal in an unaccustomed and uncomfortable position.

[5] = test system: patients; settings: human, in vivo
[6] = test system: psycho neuro-vegetative syndrome of the natural or surgical menopause
Description: A patient, suffering considerable neuro-vegetative symptoms in the natural menopause mainly with attacks of sweating and hot flushes (30-40 a day), was treated orally with N-(1'-allyl-2'-pyrrolidylmethyl)-2,3-dimethoxy-5-sulfamoylbenzamide at a dosage of 100 mg per day. […] The following is a comparison of the patient's neuro-vegetative symptoms before treatment with treatment after eight days:
The patient was treated orally with N-(1'-allyl-2'-pyrrolidylmethyl)-2,3-dimethoxy-5-sulfamoylbenzamide at a dosage rate of 100 mg per day.
A patient had considerable neuro-vegetative symptoms in the natural menopause with mainly hot flushes and headaches.
The patient was treated orally with N-(1'-allyl-2'-pyrrolidylmethyl)-2,3-dimethoxy-5-sulfamoylbenzamide at a dosage rate of 100 mg per day for twenty days.
The patient was treated again in the same manner as previously at a dosage rate of 100 mg per day for twenty days.
A patient suffered neuro-vegetative symptoms in the surgical menopause with mainly hot flushes which set in following a hysterectomy for a fibroid tumor.

[7] = Semichronic toxicity in the Wistar rat, oral, four weeks; settings: in vivo, doses 0.5, 1 and 2 g/kg per 24 hours, read-out: relatively or completely non-toxic up to (dose)
Description: In the rat the compound was administered in doses of 0.5, 1 and 2 g/kg per 24 hours.

[8] = test system: psycho neuro-vegetative syndrome of the natural or surgical menopause; assay: Clinical results in patients with psycho neuro-vegetative syndrome of the menopause (243 patients); format: in vivo, human
[9] = test system: Wistar rat; assay: Acute toxicity in the Wistar rat (oral administration); format: in vivo
Description: as §1
However, the LD0 is approximately 1.5 g/kg.

[10] = test system: female rat; assay: Effects on ovary, vaginal cytology and mammary glands in the female rat; format: in vivo
Description: as §2

[11] = female hamster, subcutaneous injections, 3.5 and 10 mg/kg
[12] = Example 18, 100 mg per day oral, after eight days, before: Severe
[13] = Example 19, 100 mg per day oral, eight days, before: Severe
[14] = Example 20, 100 mg per day oral for twenty days, before: Severe
[15] = Example 21, 100 mg per day oral for twenty days, before: Severe
[16] = Example 21, 100 mg per day oral for twenty days, before: Yes
[17] = Example 22, 100 mg per day oral for twenty days, before: Medium
[18] = Example 22, 100 mg per day oral for twenty days, before: Yes
[19] = Example 23, 100 mg per day oral for twenty days, before: Severe
[20] = Example 23, 100 mg per day oral for twenty days, before: Yes
[21] = female rat, subcutaneous injections, 3.5 and 10 mg/kg

## C=CCN1CCCC1CNC(=O)c1cc(S(N)(=O)=O)cc(OC)c1OC (stereo not drawn) [N-(1'-allyl-2'-pyrrolidylmethyl)-2,3-dimethoxy-5-sulfamoylbenzamide]
[1]; ip
  LD50: 320 mg/kg
[1]; iv
  LD50: 124 to 129 mg/kg
[1]; po
  LD50: 1300 mg/kg
[1]; sc
  LD50: 465 to 518 mg/kg
[2]
  difference between compound and placebo: very significant difference
[3]; [11]
  corpora lutea of the ovary: caused the corpora lutea of the ovary to be maintained
  progesterone secretion by the maintained corpora lutea: secreted increased quantities of progesterone
[3]; hamster
  development of the mammary glands: development of the mammary glands was noted
[3]; hamster, at the highest doses
  secretory activity of the mammary glands: signs of secretory activity
[4]
  cataleptic action: virtually no cataleptic action
[4]; 200 mg/kg
  animals made cataleptic: 30%
[5]
  clinical and biological tolerance: excellent
  side effects including mammary congestion, galactorrhea, drowsiness, etc. (cases): less than 8 % of the cases
[5]; po
  acceptability of the treatment: perfect acceptability
  general tolerance: excellent general tolerance
  premature interruption of treatment, aversion or troublesome side effects: In no case was the course of treatment interrupted prematurely
[6]; 100 mg per day oral, first treatment, Examples 19, 20, 22
  results of the treatment: excellent
[6]; Example 18, 100 mg per day oral, after eight days, before: Medium
  Headaches, After Treatment: None
[6]; [12]
  Hot Flushes: Frequency, After Treatment: None
  Hot Flushes: Intensity, After Treatment: None
  Irritability, After Treatment: Slight
[6]; Example 18, 100 mg per day oral, after eight days, before: Slight
  Anxiety, After Treatment: None
[6]; Example 18, 100 mg per day oral, after two days (before: hot flushes 30-40 a day)
  flashes and sweating attacks: 8 per day
[6]; Example 19, 100 mg per day oral, eight days, before: Medium
  Anxiety, After Treatment: Slight
[6]; [13]
  Headaches, After Treatment: Slight
  Hot Flushes: Frequency, After Treatment: None
  Hot Flushes: Intensity, After Treatment: None
  Irritability, After Treatment: Slight
[6]; Example 20, 100 mg per day oral for twenty days, before: Medium
  Headaches, After Treatment: None
[6]; [14]
  Hot Flushes: Frequency, After Treatment: None
  Hot Flushes: Intensity, After Treatment: None
  Irritability, After Treatment: Slight
[6]; [15]
  Hot Flushes: Frequency, Twenty Days After Treatment: None
  Hot Flushes: Intensity, Twenty Days After Treatment: None
[6]; [16]
  Abdominal Meteorism, Twenty Days After Treatment: No
  Anxiety, Twenty Days After Treatment: No
[6]; [17]
  Hot Flushes: Frequency, Twenty Days After Treatment: None
  Hot Flushes: Intensity, Twenty Days After Treatment: None
[6]; [18]
  Anxiety, Twenty Days After Treatment: No
  Irritability, Twenty Days After Treatment: No
[6]; Example 23, 100 mg per day oral for twenty days
  reappearance of symptoms after end of second treatment: appeared again five days after termination of the second treatment
[6]; [19]
  Hot Flushes: Frequency, Twenty Days After Treatment: Slight
  Hot Flushes: Intensity, Twenty Days After Treatment: Slight
[6]; [20]
  Anxiety, Twenty Days After Treatment: No
  Depression, Twenty Days After Treatment: No
  Irritability, Twenty Days After Treatment: Yes
  Libido Change, Twenty Days After Treatment: Yes
[7]
  NOAEL at 672 h: 1000 mg/kg/day
[8]; 32 cases
  Vulvar Irritation: Percentage Very Good & Good: 84%
  Vulvar Irritation: Results, Average & Zero (number of cases): 5
  Vulvar Irritation: Results, Very Good & Good (number of cases): 27
[8]; 211 cases
  Hot Flushes: Percentage Very Good & Good: 73.9%
  Hot Flushes: Results, Average & Zero (number of cases): 55
  Hot Flushes: Results, Very Good & Good (number of cases): 156
[8]; cases of hot flushes
  effectiveness excellent or good in hot flushes: 74 % of the cases
[8]; cases of vulvar irritation
  vulvar irritation eliminated: 84 % of the cases
[8]; patients, menopause
  effective in psycho neuro-vegetative syndrome of the menopause (hot flashes, vulvar pruritus, vaginal diseases): 84 % of the cases treated
[8]; patients, natural or surgical menopause
  patient's mental state: parallel improvement in the patient's mental state
[9]; Wistar rat, oral
  LD50: toxicity of the compound was so low that the LD50 could not be determined
[9]; rat, in vivo, po
  LD0: approximately 1.5 g/kg
  LD100: > 4000 mg/kg
[10]; female rat
  change to the uterus: little change to the uterus
  vaginal cycle: blocked in dioestrus
  vaginal epithelium: primsmatic, indicating the predominance of progesterone over estrogens
[10]; [21]
  corpora lutea of the ovary: caused the corpora lutea of the ovary to be maintained
  progesterone secretion by the maintained corpora lutea: secreted increased quantities of progesterone
[10]; mammary gland development
  susceptibility, rat versus hamster: The rat appeared to be more susceptible than the hamster
[10]; rat
  development of the mammary glands: development of the mammary glands was noted
[10]; rat, at the highest doses
  secretory activity of the mammary glands: signs of secretory activity
